# What was measured:
# Format in all cases: cell-based
# [1] = tested on: fungal mix (including yeasts and molds): Aspergillus brasiliensis DSM 1988, Rhodotorula mucilaginosa DSM 13621, Yarrowia lipolytica DSM 8218; assay: Preservative activity of a basic composition (10% PG in water, pH 7) with 2-phenoxyethanol against fungal contamination (Example 1.1); settings: 25° C.; for d21 [CFU/ml]: day 21
# Method: An aqueous composition of pH 7 comprising 10% by weight of propyleneglycol (PG) as organic solvent, 0.36% by weight of 2-phenoxyethanol (PE) as antimicrobial and 0.04% by weight of the amide listed in the below table was tested for its preserving activity against fungal contamination (the percentages are weight percent and relate to the total weight of the composition). For this purpose, the samples were contaminated with a fungal mix (including yeasts and molds) consisting of: • Aspergillus brasiliensis DS M 1988 • Rhodotorula mucilaginosa DSM 13621 • Yarrowia lipolytica DS M 8218
# To control the efficacy, following control compositions were tested: • “Reference”, consisting of only 10% by weight of propylene glycol in water • “Comparative 1” containing 10% by weight of propylene glycol and amide in the given concentration, but no 2-phenoxyethanol • […] in the given concentration, but no amide.
# The samples were inoculated with the fungal mix at day 0, 7 and 14 to obtain a cell density in the range of 1-3×10E+05 CFU/ml (CFU=colony forming units) in the test samples (compositions listed in the below table) and stored at 25° C. for 21 days.
# CFU was determined before re-inoculation at days 7 and 14, and on day 21.
# [2] = tested on: fungal mix: Aspergillus brasiliensis DSM 1988, Rhodotorula mucilaginosa DSM 13621, Yarrowia lipolytica DSM 8218; assay: Preservative activity in a manual dishwashing composition (MDW, pH 7.1) with 2.0% 2-phenoxyethanol against fungal mix (Example 1.3); settings: for d7 [CFU/ml]: day 7; for d14 [CFU/ml]: day 14; for d21 [CFU/ml]: day 21
# Method: (§1) A manual dish wash detergent (MDW) of pH 7.1 containing the following components was used:
# (§2) The samples were contaminated with a fungal mix consisting of: • Aspergillus brasiliensis DSM 1988 • Rhodotorula mucilaginosa DSM 13621 • Yarrowia lipolytica DSM 8218
# The samples were inoculated with the fungal mix at day 0 and 7 to obtain 1-3×10E+05 CFU/ml inoculation in the test sample consisting of the above-defined dish wash detergent MDW and stored at 25° C. for 21 days. CFU was determined before re-inoculation at day 7, and on days 14 and 21.
# Any CFU value at d7, d14 or d21 obtained with a MDW sample of the invention containing 2-phenoxyethanol and amide (MDW+2.0% PE+1% of Amide) lower than the respective value of the “comparative 2” example (MDW+2.0% by weight of 2-phenoxyethanol) indicates a better performance of the inventive combination of 2-phenoxyethanol with the amide.
# [3] = tested on: fungus Aspergillus brasiliensis DSM 1988; assay: Preservative activity in an enzyme (mannanase) solution of pH 6 with 2-phenoxyethanol (Example 1.4); settings: for d0 [CFU/ml]: day 0 (inoculation); for d2 [CFU/ml]: day 2; for d7 [CFU/ml]: day 7; for d14 [CFU/ml]: day 14; for d15 [CFU/ml]: day 15 (after re-inoculation); for d22 [CFU/ml]: day 22; for d29 [CFU/ml]: day 29
# Method: A enzyme solution of pH 6 containing the hydrolase mannanase of the following composition was used:
# The samples were contaminated with the fungus Aspergillus brasiliensis DSM 1988.
# The samples were inoculated with the fungus at day 0 and 15 to obtain 1-3×10E+05 CFU/ml inoculation in the test sample consisting of the above-defined enzyme solution and stored at 25° C. for 29 days. CFU was determined at days 0, 2, 7, 14, 15 (after re-inoculation), 22 and 29 (abbreviated d0, d2, d7, d14, d15, d22, d29).
# Any CFU value at d2, d7, d14, d22 or d29 obtained with an enzyme solution sample of the invention containing 2-phenoxyethanol and amide (enzyme solution+0.7% PE+0.07% of amide) lower than the respective value of the comparative example (enzyme solution+0.7% by weight of 2-phenoxyethanol) indicates a better performance of the inventive combination of 2-phenoxyethanol with the amide.
# The amide used was N,N-dimethyl-n-decanoyl amide (=n-decanoyl-N,N-dimethylamide).
# [4] = tested on: fungal mix: Aspergillus brasiliensis DSM 1988, Rhodotorula mucilaginosa DSM 13621, Yarrowia lipolytica DSM 8218; assay: Preservative activity in a hard surface cleaner composition (HSC, pH 7.0) with 2-phenoxyethanol against fungal mix (Example 1.5); settings: HSC + 1.35% PE, no amide (Comparative 2)
# Method: A manual hard surface cleaner (HSC) of pH 7.0 containing the following components was used:
# as §2
# The samples were inoculated with the fungal mix at day 0 and 7 to obtain 1-3×10E+05 CFU/ml inoculation in the test sample consisting of the above-defined hard surface cleaner HSC and stored at 25° C. for 21 days. CFU was determined before re-inoculation at day 7, and on days 14 and 21.
# [5] = tested on: bacterial mix: Escherichia coli DSM 1576, Alcaligenes faecalis DSM 13644, Pseudomonas aeruginosa ATCC 15442, Staphylococcus aureus ATCC 6538, Burkholderia …; assay: Preservative activity in a manual dishwashing composition (MDW, pH 7.1) with 2.0% 2-phenoxyethanol against bacterial mix (Example 2.4); settings: MDW + 2.0% PE, no amide (Comparative 2)
# Method: as §1
# The samples were contaminated with a bacterial mix consisting of: • Escherichia coli DSM 1576 • Alcaligenes faecalis DSM 13644 • Pseudomonas aeruginosa ATCC 15442 • Staphylococcus aureus ATCC 6538 • Burkholderia cepacia DSM 7288 • Pseudomonas putida DSM 12735
# The samples were inoculated with the bacterial mix at day 0 and 7 to obtain 10E+06 to 10E+07 CFU/ml inoculation in the test sample and stored at 25° C. for 21 days. CFU was determined before re-inoculation at day 7 and on days 14 and 21.
# Any CFU value at day 7 (d7), day 14 (d14) or day 21 (d21) obtained with a sample according to the invention containing 2-phenoxyethanol and amide (MDW+2.0% PE+x % Amide) lower than the respective value of the “comparative 2” example (MOW+2.0% by weight of 2-phenoxyethanol) indicates a better performance.
# [6] = MDW + 2.0% PE, no amide (Comparative 2)
# [7] = Enzyme solution + 0.7% PE, no amide (Comparative)
# [8] = MDW + 1.0% amide, no PE (Comparative 1)
# [9] = Enzyme solution + 0.7% PE + 0.07% amide
compound,measurement,setting,value
"OCCOc1ccccc1 [PE, 2-phenoxyethanol, reference compound]",d7 [CFU/ml],"[1]; 10% PG + 0.4% PE, no amide (Comparative 2), fungal mix inoculated at day 0, 7 and 14, day 7","10,000 CFU/ml"
same,d14 [CFU/ml],"[1]; 10% PG + 0.4% PE, no amide (Comparative 2), fungal mix inoculated at day 0, 7 and 14, day 14","16,000 CFU/ml"
same,d21 [CFU/ml],"[1]; 10% PG + 0.4% PE, no amide (Comparative 2), fungal mix inoculated at day 0, 7 and 14","38,500 CFU/ml"
same,d7 [CFU/ml],[2]; [6],"27,500 CFU/ml"
same,d14 [CFU/ml],[2]; [6],"22,000 CFU/ml"
same,d21 [CFU/ml],[2]; [6],"18,000 CFU/ml"
same,d0 [CFU/ml],[3]; [7],"110,000 CFU/ml"
same,d2 [CFU/ml],[3]; [7],"92,000 CFU/ml"
same,d7 [CFU/ml],[3]; [7],"29,000 CFU/ml"
same,d14 [CFU/ml],[3]; [7],"21,000 CFU/ml"
same,d15 [CFU/ml],[3]; [7],"300,000 CFU/ml"
same,d22 [CFU/ml],[3]; [7],"67,000 CFU/ml"
same,d29 [CFU/ml],[3]; [7],"100,000 CFU/ml"
same,d7 [CFU/ml],[4]; day 7,"37,000 CFU/ml"
same,d14 [CFU/ml],[4]; day 14,"36,000 CFU/ml"
same,d21 [CFU/ml],[4]; day 21,3200 CFU/ml
same,d7 [CFU/ml],[5]; day 7,330 CFU/ml
same,d14 [CFU/ml],[5]; day 14,"2,800 CFU/ml"
same,d21 [CFU/ml],[5]; day 21,"38,500 CFU/ml"
"CCCCCCCCCC(=O)N(C)C [n-Decanoyl-N,N-dimethylamide]",d7 [CFU/ml],"[1]; 10% PG + 0.36% PE + 0.04% Amide in water, pH 7, fungal mix inoculated at day 0, 7 and 14 (1-3x10E+05 CFU/ml), day 7 before re-inoculation",<10 CFU/ml
same,d14 [CFU/ml],"[1]; 10% PG + 0.36% PE + 0.04% Amide in water, pH 7, fungal mix inoculated at day 0, 7 and 14, day 14 before re-inoculation",<10 CFU/ml
same,d21 [CFU/ml],"[1]; 10% PG + 0.36% PE + 0.04% Amide in water, pH 7, fungal mix inoculated at day 0, 7 and 14",<10 CFU/ml
same,d7 [CFU/ml],[2]; [8],"50,500 CFU/ml"
same,d14 [CFU/ml],[2]; [8],"97,500 CFU/ml"
same,d21 [CFU/ml],[2]; [8],"83,000 CFU/ml"
same,d7 [CFU/ml],[2]; MDW + 2.0% PE + 1.0% amide,"19,000 CFU/ml"
same,d14 [CFU/ml],[2]; MDW + 2.0% PE + 1.0% amide,"10,000 CFU/ml"
same,d21 [CFU/ml],[2]; MDW + 2.0% PE + 1.0% amide,"5,000 CFU/ml"
same,d0 [CFU/ml],"[3]; Enzyme solution + 0.7% PE + 0.07% amide (N,N-dimethyl-n-decanoyl amide)","110,000 CFU/ml"
same,d2 [CFU/ml],[3]; [9],"80,000 CFU/ml"
same,d7 [CFU/ml],[3]; [9],240 CFU/ml
same,d14 [CFU/ml],[3]; [9],30 CFU/ml
same,d15 [CFU/ml],[3]; [9],"300,000 CFU/ml"
same,d22 [CFU/ml],[3]; [9],"14,000 CFU/ml"
same,d29 [CFU/ml],[3]; [9],70 CFU/ml

# From patent US20250040539A1, “COMPOSITION COMPRISING AN ANTIMICROBIAL AGENT AND A CARBOXAMIDE” (BASF SE, priority 2021, published 2025)
